pIC50: −log10 of the molar value. Structures can show the parent of a compound that is named as a salt.
Tested on: SARS-CoV-2
Test: microbe, parasite or virus in culture
Settings: Severe acute respiratory syndrome coronavirus 2, Vero C1008, 48 h; for IC50: read-out: pIC50 (converted)

Row | Compound | pIC50 | IC50
1 | C[C@]12CCC(=O)C=C1CC[C@@H]1[C@@H]2CC[C@@]2(C)[C@H]1CC[C@]2(C)O [METHYLTESTOSTERONE] | < 4.70 | > 20 µM
2 | Cc1cc(=O)[nH]c(=S)[nH]1 [METHYLTHIOURACIL] | < 4.70 | > 20 µM
3 | CN1c2ccccc2Sc2ccc(CC(=O)O)cc21 [METIAZINIC ACID] | < 4.70 | > 20 µM
4 | COc1cc(Cc2cnc(N)nc2N)cc(OC)c1SC [METIOPRIM] | < 4.70 | > 20 µM
5 | CSc1ccc2c(c1)C(N1CCN(C)CC1)Cc1ccccc1S2 (stereo not drawn) [METITEPINE] | < 4.70 | > 20 µM
6 | Cc1sc2ccccc2c1CC1=NCCN1 [METIZOLINE] | < 4.70 | > 20 µM
7 | CCN(CC)CCNC(=O)c1cc(Cl)c(N)cc1OC [METOCLOPRAMIDE] | < 4.70 | > 20 µM
8 | Cc1ccccc1N1C(=O)c2cc(S(N)(=O)=O)c(Cl)cc2NC1C (stereo not drawn) [METOLAZONE] | < 4.70 | > 20 µM
9 | CS(=O)(=O)c1ccc2c(c1)N(CCCN1CCC(C(N)=O)CC1)c1ccccc1S2 [METOPIMAZINE] | < 4.70 | > 20 µM
10 | Cc1nc(N)nc(N)c1-c1ccc(Cl)c(Cl)c1 [METOPRINE] | < 4.70 | > 20 µM
11 | COCCc1ccc(OCC(O)CNC(C)C)cc1 (stereo not drawn) [METOPROLOL] | < 4.70 | > 20 µM
12 | CC(=O)Nc1c(I)c(C(=O)N[C@H]2C(O)O[C@H](CO)[C@@H](O)[C@@H]2O)c(I)c(N(C)C(C)=O)c1I (stereo partly drawn) [METRIZAMIDE] | < 4.70 | > 20 µM
13 | Cc1ncc([N+](=O)[O-])n1CCO [METRONIDAZOLE] | < 4.70 | > 20 µM
14 | CC(C)(C(=O)c1cccnc1)c1cccnc1 [METYRAPONE] | < 4.70 | > 20 µM
15 | CC[C@H](C)C(=O)O[C@H]1CCC=C2C=C[C@H](C)[C@H](CC[C@@H]3C[C@@H](O)CC(=O)O3)[C@H]21 [MEVASTATIN] | < 4.70 | > 20 µM
16 | COc1ccc(C(=O)c2ccc(C)cc2)c(O)c1 [MEXENONE] | < 4.70 | > 20 µM
17 | CN1CCN2c3ccccc3Cc3ccccc3C2C1 (stereo not drawn) [MIANSERIN] | < 4.70 | > 20 µM
18 | c1ccc(C(CC2=NCCN2)c2ccccn2)cc1 (stereo not drawn) [MIDAGLIZOLE] | < 4.70 | > 20 µM
19 | COc1ccc(OC)c(C(O)CNC(=O)CN)c1 (stereo not drawn) [MIDODRINE] | < 4.70 | > 20 µM
20 | CC(C)/N=C/Nc1ccc(-c2c[nH]cn2)cc1 [MIFENTIDINE] | < 4.70 | > 20 µM
21 | CC#C[C@]1(O)CC[C@H]2[C@@H]3CCC4=CC(=O)CCC4=C3[C@@H](c3ccc(N(C)C)cc3)C[C@@]21C [MIFEPRISTONE] | < 4.60 | > 25.1 µM
22 | COP(=O)(OC)OC(c1ccc(Cl)cc1)P(=O)(OC)OC (stereo not drawn) [MIFOBATE] | < 4.70 | > 20 µM
23 | OCCN1C[C@H](O)[C@@H](O)[C@H](O)[C@H]1CO [MIGLITOL] | < 4.70 | > 20 µM
24 | CO/N=C/C1=CCCN(C)C1 [MILAMELINE] | < 4.70 | > 20 µM
25 | COc1cc2[nH]c(C)c(CCN3CCN(c4ccccc4OC)CC3)c2cc1OC [MILIPERTINE] | < 4.70 | > 20 µM

Row | Compound | pIC50 | IC50
26 | Cc1[nH]c(=O)c(C#N)cc1-c1ccncc1 [MILRINONE] | < 4.70 | > 20 µM
27 | Cc1cc(-c2ccccc2)nnc1NCCN1CCOCC1 [MINAPRINE] | < 4.70 | > 20 µM
28 | CCCc1c2nc(C(=O)O)cc(NC)c2cc2c(=O)cc(C(=O)O)oc12 [MINOCROMIL] | < 4.70 | > 20 µM
29 | CN(C)c1ccc(O)c2c1C[C@H]1C[C@H]3[C@H](N(C)C)C(O)=C(C(N)=O)C(=O)[C@@]3(O)C(O)=C1C2=O [MINOCYCLINE] | < 4.70 | > 20 µM
30 | Nc1cc(N2CCCCC2)nc(N)[n+]1[O-] [MINOXIDIL] | < 4.70 | > 20 µM
31 | O=c1[nH]c(=O)c(Cc2cccc(C(F)(F)F)c2)c([C@H]2CC[C@H](c3ccccc3)CC2)[nH]1 [MIRICORILANT] | < 4.70 | > 20 µM
32 | CN1CCN2c3ncccc3Cc3ccccc3C2C1 (stereo not drawn) [MIRTAZAPINE] | < 4.70 | > 20 µM
33 | COCC(O)Cn1ccnc1[N+](=O)[O-] (stereo not drawn) [MISONIDAZOLE] | < 4.70 | > 20 µM
34 | CCCCC(C)(O)C/C=C/[C@H]1[C@H](O)CC(=O)[C@@H]1CCCCCCC(=O)OC (stereo partly drawn) [MISOPROSTOL] | < 4.70 | > 20 µM
35 | CCc1ccc(C(=O)COc2ccc(CC3SC(=O)NC3=O)cc2)nc1 (stereo not drawn) [MITOGLITAZONE] | < 4.70 | > 20 µM
36 | CO[C@@]12[C@H](COC(N)=O)C3=C(C(=O)C(C)=C(N)C3=O)N1C[C@@H]1N[C@@H]12 [MITOMYCIN] | < 4.70 | > 20 µM
37 | Clc1ccc(C(c2ccccc2Cl)C(Cl)Cl)cc1 (stereo not drawn) [MITOTANE] | < 4.70 | > 20 µM
38 | O=C1c2c(O)ccc(O)c2C(=O)c2c(NCCNCCO)ccc(NCCNCCO)c21 [MITOXANTRONE] | < 4.70 | > 20 µM
39 | O=C(CN1C(=O)C2(CCCC2)NC[C@H]1c1cc(F)cc(F)c1)Nc1ccc2c(c1)C[C@@]1(C2)C(=O)Nc2ncccc21 [MK3207] | < 4.70 | > 20 µM
40 | CN(C)C(=O)CCSC(SCCC(=O)O)c1cccc(/C=C/c2ccc3ccc(Cl)cc3n2)c1 (stereo not drawn) [MK-571] | < 4.70 | > 20 µM
41 | CCn1ncnc1COc1nn2c(-c3ccccc3F)nnc2cc1C(C)(C)C [MK-0777] | < 4.70 | > 20 µM
42 | NC1(c2ccc(-c3nc4ccn5c(=O)[nH]nc5c4cc3-c3ccccc3)cc2)CCC1 [MK-2206] | < 4.70 | > 20 µM
43 | Cc1ccc(Cc2cc3c(=O)n([C@H]4CCCC[C@@H]4O)cnc3c3ccccc23)cn1 [MK-7622] | < 4.70 | > 20 µM
44 | CS(=O)(=O)c1ccc(-c2cnc(N)c(-c3ccc(C(F)(F)F)nc3)c2)cc1 [MMV-048] | < 4.70 | > 20 µM
45 | Nc1ccccc1NC(=O)c1ccc(CNc2nccc(-c3cccnc3)n2)cc1 [MOCETINOSTAT] | < 4.70 | > 20 µM
46 | O=C(NCCN1CCOCC1)c1ccc(Cl)cc1 [MOCLOBEMIDE] | < 4.70 | > 20 µM
47 | NC(=O)C[S+]([O-])C(c1ccccc1)c1ccccc1 (stereo not drawn) [MODAFINIL] | < 4.70 | > 20 µM
48 | Cc1nccnc1N1CCCCC1 [MODALINE] | < 4.70 | > 20 µM
49 | COc1cc(C(=O)Nc2ccccc2CCC2CCCCN2C)ccc1O (stereo not drawn) [MODECAINIDE] | < 4.70 | > 20 µM
50 | CCOC(=O)[C@H](CCc1ccccc1)N[C@@H](C)C(=O)N1Cc2cc(OC)c(OC)cc2C[C@H]1C(=O)O [MOEXIPRIL] | < 4.70 | > 20 µM

Row | Compound | pIC50 | IC50
51 | CCc1c(C)[nH]c2c1C(=O)C(CN1CCOCC1)CC2 (stereo not drawn) [MOLINDONE] | < 4.70 | > 20 µM
52 | CCOC(=O)[N-]c1c[n+](N2CCOCC2)no1 [MOLSIDOMINE] | < 4.70 | > 20 µM
53 | N#CCNC(=O)c1ccc(-c2ccnc(Nc3ccc(N4CCOCC4)cc3)n2)cc1 [MOMELOTINIB] | < 4.70 | > 20 µM
54 | C[C@@H]1C[C@H]2[C@@H]3CCC4=CC(=O)C=C[C@]4(C)[C@@]3(Cl)[C@@H](O)C[C@]2(C)[C@@]1(OC(=O)c1ccco1)C(=O)CCl [MOMETASONE FUROATE] | < 4.70 | > 20 µM
55 | CC[C@@]1([C@@H]2O[C@@H]([C@H]3O[C@@](O)(CO)[C@H](C)C[C@@H]3C)C[C@@H]2C)CC[C@H]([C@]2(C)CC[C@]3(C[C@H](O)[C@@H](C)[C@@H]([C@@H](C)[C@@H](OC)[C@H](C)C(=O)O)O3)O2)O1 [MONENSIN] | < 4.70 | > 20 µM
56 | Oc1ccc(OCc2ccccc2)cc1 [MONOBENZONE] | < 4.70 | > 20 µM
57 | C[C@H]1C(=O)O[C@@H]2CCN3CC=C(COC(=O)[C@](C)(O)[C@]1(C)O)[C@H]23 [MONOCROTALINE] | < 4.70 | > 20 µM
58 | NCCO [MONOETHANOLAMINE] | < 4.70 | > 20 µM
59 | COC(=O)/C=C/C(=O)O [MONOMETHYL FUMARATE] | < 4.70 | > 20 µM
60 | CC(C)(O)c1ccccc1CC[C@@H](SCC1(CC(=O)O)CC1)c1cccc(/C=C/c2ccc3ccc(Cl)cc3n2)c1 [MONTELUKAST] | < 4.70 | > 20 µM
61 | Cc1ccc(C2(O)CCN(CCCC(=O)c3ccc(F)cc3)CC2)cc1 [MOPERONE] | < 4.70 | > 20 µM
62 | COc1ccccc1OCC(O)CNC(C)C (stereo not drawn) [MOPROLOL] | < 4.70 | > 20 µM
63 | Cc1ccsc1/C=C/C1=NCCCN1C [MORANTEL] | < 4.70 | > 20 µM
64 | CCOC(=O)Nc1ccc2c(c1)N(C(=O)CCN1CCOCC1)c1ccccc1S2 [MORICIZINE] | < 4.70 | > 20 µM
65 | O=c1c(O)c(-c2ccc(O)cc2O)oc2cc(O)cc(O)c12 [MORIN] | < 4.70 | > 20 µM
66 | O=C(OCCN1CCOCC1)c1cccnc1Nc1cccc(C(F)(F)F)c1 [MORNIFLUMATE] | < 4.70 | > 20 µM
67 | N=C(N)NC(=N)N1CCOCC1 [MOROXYDINE] | < 4.70 | > 20 µM
68 | CCOC(=O)C1(c2ccccc2)CCN(CCN2CCOCC2)CC1 [MORPHERIDINE] | < 4.70 | > 20 µM
69 | CCOc1cc(N)c(Cl)cc1C(=O)NCC1CN(Cc2ccc(F)cc2)CCO1 (stereo not drawn) [MOSAPRIDE] | < 4.70 | > 20 µM
70 | CC1(C)CNc2cc(NC(=O)c3cccnc3NCc3ccncc3)ccc21 [MOTESANIB] | < 4.70 | > 20 µM
71 | CCCN(CCC)C(=O)C1=Cc2ccc(-c3ccc(C(=O)N4CCCC4)cc3)cc2N=C(N)C1 [MOTOLIMOD] | < 4.70 | > 20 µM
72 | COc1c(N2C[C@@H]3CCCN[C@@H]3C2)c(F)cc2c(=O)c(C(=O)O)cn(C3CC3)c12 [MOXIFLOXACIN] | < 4.70 | > 20 µM
73 | CC(=O)Oc1cc(C(C)C)c(OCCN(C)C)cc1C [MOXISYLYTE] | < 4.70 | > 20 µM
74 | Cn1c([N+](=O)[O-])cnc1/C=N/N1CC(CN2CCOCC2)OC1=O (stereo not drawn) [MOXNIDAZOLE] | < 4.70 | > 20 µM
